Numbering of substitutions follows the chain as printed. Values joined by “and” are separate entries in the source; they are usually repeats but may differ in a detail not shown here. Identical values can stand only once. “Also recorded” adds a separate entry of the source. Like-named read-outs stand apart in the source and are kept apart here.
Experiments:
PTP1B-CASA = biological target: T1, PTP1B-CASA (Homo sapiens, UniProt P18031, C215A/S216A); assay: isothermal titration calorimetry; format: binding; details: 25°C
T1 construct: PTP1B (1–321) and TCPTP (1–317) cloned in pET21b vector were used as templates; 6xHis (C); made in house; host or cells: E. coli BL21 (DE3)-RIL
T1 sequence (P18031 1-321 C215A/S216A limits assumed): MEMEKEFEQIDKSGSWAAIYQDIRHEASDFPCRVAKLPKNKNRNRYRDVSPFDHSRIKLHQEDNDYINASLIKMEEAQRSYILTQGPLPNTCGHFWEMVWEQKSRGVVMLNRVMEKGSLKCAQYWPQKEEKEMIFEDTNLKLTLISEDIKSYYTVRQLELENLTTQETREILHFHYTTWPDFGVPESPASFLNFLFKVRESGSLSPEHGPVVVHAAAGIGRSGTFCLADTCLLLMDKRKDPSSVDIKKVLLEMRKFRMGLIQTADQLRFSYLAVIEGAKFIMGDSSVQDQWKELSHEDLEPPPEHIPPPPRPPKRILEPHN
Procedure: (§1) The studies were performed using a VP-ITC system from GE Healthcare. All titrations were performed at 25°C in de-gassed buffer (50 mM HEPES pH 7.0, 100 mM NaCl, 2 % DMSO, and 1 mM TCEP). The protein concentrations of PTP1B-CASA and PTP1B-CASA-mut2 were each 50 μM. Protein samples used in ITC were dialyzed completely against the buffer. Inhibitor (10 mM) in DMSO was diluted to make a stock solution of 0.2 mM in de-gassed buffer, which was then used as titrant in the syringe. The instrument was calibrated by using the heat of dilution of NaCl in water. […] The heat of ligand dilution was corrected by subtracting the average heat of injection after saturation. Origin software was used to fit and analyze the data.

PTP1B-CASA-mut2 = biological target: T2, PTP1B-CASA-mut2 (Homo sapiens, UniProt P18031, C215A/K39E/K41R/L37F/S216A); assay: isothermal titration calorimetry; format: binding; details: two independent experiments
T2 construct: PTP1B (1–321) and TCPTP (1–317) cloned in pET21b vector were used as templates; made in house; host or cells: E. coli BL21 (DE3)-RIL
T2 sequence (P18031 1-321 L37F/K39E/K41R/C215A/S216A limits assumed): T1 sequence (P18031 1-321 C215A/S216A limits assumed) with L37F, K39E, K41R
Procedure: as §1

[1] = biological target: T3, PTP1B-OX : TRX1 trapping mutant complex (Homo sapiens, UniProt P18031); assay: in vitro substrate trapping of PTP1B by thioredoxin trapping mutant; format: biochemical; details: chelerythrine 5 μM
T3 sequence (P18031 1-321 limits assumed): T1 sequence (P18031 1-321 C215A/S216A limits assumed) with A215C, A216S
Text: Thioredoxin (TRX), which functions to reduce oxidized cysteines in target proteins, contains an essential CXXC motif, in which the first cysteine forms a mixed disulfide intermediate with an oxidized cysteine in the target protein. The second cysteine then serves a “resolving” function—it forms a disulfide bond with the first cysteine in the CXXC motif, with the resulting transfer of electrons leading to reduction of the target protein. We utilized an assay using a “trapping mutant” form of thioredoxin in which the second cysteine is mutated to serine, which stabilizes the mixed disulfide intermediate with the target substrate.
Recombinant variants of N-terminally His-tagged human TRX1 (0.1 mg, WT, and trapping mutant, C35S) were reduced with 20 mM DTT in 1 mL PBS on ice for 30 min, then desalted on a Sephadex PD-10 column. Ten μg each of TRX1-WT and TRX1-C35S proteins was used in the trapping experiment. PTP1B (40 μg ml^−1) was incubated with H2O2 (0, 0.1 and 0.5 mM) for 10 min at room temperature and excess H2O2 was removed by desalting. Reduced and oxidized forms of PTP1B (20 μg) were incubated with WT or trapping mutant TRX1 for 20 min at room temperature in the absence and presence of chelerythrine (5 μM) in 1 mL PBS. Ni-NTA beads were added and incubated for 1 h at 4 °C. […]

PKC = details: called into question by refs 39, 40; cited from earlier work
PTP1B-OX = biological target: T4, PTP1B-OX (Homo sapiens, UniProt P18031); assay: displacement assay of scFv antibodies from PTP1B-OX; format: binding; details: chelerythrine 0–20 μM
T4 construct: Purified PTP1B (1–321) (100 nM) was mixed with increasing concentrations of H2O2; 6xHis (C); made in house; host or cells: E. coli BL21 (DE3)-RIL
T4 sequence (P18031 1-321): T1 sequence (P18031 1-321 C215A/S216A limits assumed) with A215C, A216S
Procedure: To test whether there was overlap in the binding site for chelerythrine and scFv antibodies that stabilized PTP1B-OX, we performed an in vitro competition binding assay using purified components. […] We focused on scFv106 and scFv67. Purified PTP1B (50 nM) was reversibly oxidized with 250 µM H2O2 followed by a buffer exchange to remove excess H2O2. Increasing concentration of purified scFv antibody (0–10 µM) was incubated with oxidized proteins in binding buffer (20 mM HEPES pH 7.4, 300 mM NaCl, 0.05% BSA, 0.05% Tween-20) for 2 h at 4 °C. Anti-HA agarose (Roche, 50% slurry equilibrated in the binding buffer) was added and incubated for 1 h at 4 °C. Protein complexes bound to anti-HA beads were precipitated and washed three times; first with lysis buffer followed by two more washes with wash buffer (25 mM HEPES pH 7.4, 100 mM NaCl, 0.05% BSA, 0.05% Tween-20, and protease inhibitors). The protein complex was incubated with varying concentrations of chelerythrine (0–20 µM) for 2 h at 4 °C, following which the beads were washed as described above. The complexes were resolved by SDS-PAGE and analyzed by immunoblotting.

SMILES: COc1ccc2c(c[n+](C)c3c4cc5c(cc4ccc23)OCO5)c1OC [chelerythrine]
- Kd (PTP1B-CASA; read-out: binding constant for PTP1B-CASA by ITC): 3 µM
- Kd (PTP1B-CASA; independent experiments, read-out: affinity for PTP1B-CASA by ITC): 3.25 µM and 2.83 µM and 3.44 µM
- binding to PTP1B-CASA-mut2 by ITC (PTP1B-CASA-mut2): No apparent binding; also recorded: did not detect saturable binding
- complex formation between PTP1B-OX and thioredoxin substrate trapping mutant [1]: did not prevent complex formation
- inhibition of PKC (PKC): inhibitor of PKC
- competition with scFv106 for binding to PTP1B-OX (PTP1B-OX): competed

Reference: paper PMC5773487, “Harnessing insulin- and leptin-induced oxidation of PTP1B for therapeutic development” (Nature Communications, 2018)
